Reference: the supplement of paper PMC10307832

How the values were obtained:
Assay in all cases: relative viability (nuclei count vs DMSO), 5 days (fraction); higher = more cells survive
Tivantinib + Trametinib = compound: O=C1NC(=O)[C@@H](c2cn3c4c(cccc24)CCC3)[C@@H]1c1c[nH]c2ccccc12 [Tivantinib] + CC(=O)Nc1cccc(-n2c(=O)n(C3CC3)c(=O)c3c(Nc4ccc(I)cc4F)n(C)c(=O)c(C)c32)c1 [Trametinib] (partner 0.02 µM)
Method in brief: (§1)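 One day after seeding in 1536-well plates, lung cancer cell lines were dosed by pin tool. Dosing was either single-drug or a fixed anchor-drug dose plus five library-drug doses (not always all listed) in √10 steps. After 5 days, nuclei were stained in one fix-and-stain step and counted on 4× images, and relative viability is the nuclei count of treated wells over that of vehicle wells, given as the median of duplicate plates.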

Tivantinib + Foretinib = compound: O=C1NC(=O)[C@@H](c2cn3c4c(cccc24)CCC3)[C@@H]1c1c[nH]c2ccccc12 [Tivantinib] + COc1cc2c(Oc3ccc(NC(=O)C4(C(=O)Nc5ccc(F)cc5)CC4)cc3F)ccnc2cc1OCCCN1CCOCC1 [Foretinib] (partner 0.25 µM)
Method in brief: as §1

Crenolanib + Dasatinib = compound: CC1(COc2ccc3c(c2)ncn3-c2ccc3cccc(N4CCC(N)CC4)c3n2)COC1 [Crenolanib] + Cc1nc(Nc2ncc(C(=O)Nc3c(C)cccc3Cl)s2)cc(N2CCN(CCO)CC2)n1 [Dasatinib] (partner 0.075 µM)
Method in brief: as §1

Tivantinib + Pictilisib = compound: O=C1NC(=O)[C@@H](c2cn3c4c(cccc24)CCC3)[C@@H]1c1c[nH]c2ccccc12 [Tivantinib] + CS(=O)(=O)N1CCN(Cc2cc3nc(-c4cccc5[nH]ncc45)nc(N4CCOCC4)c3s2)CC1 [Pictilisib] (partner 1 µM)
Method in brief: as §1

Cell Line: CAL-12T
- relative viability (Tivantinib + Trametinib; first compound 0.01 µM): 0.451
- relative viability (Tivantinib + Trametinib; first compound 0.03162 µM): 0.269
- relative viability (Tivantinib + Trametinib; first compound 0.1 µM): 0.359
- relative viability (Tivantinib + Trametinib; first compound 0.3162 µM): 0.183
- relative viability (Tivantinib + Foretinib; first compound 0.01 µM): 1.17
- relative viability (Tivantinib + Foretinib; first compound 0.03162 µM): 0.953
- relative viability (Tivantinib + Foretinib; first compound 0.1 µM): 1.1
- relative viability (Tivantinib + Foretinib; first compound 0.3162 µM): 0.782
- relative viability (Crenolanib + Dasatinib; first compound 0.01 µM): 0.455
- relative viability (Crenolanib + Dasatinib; first compound 0.03162 µM): 0.51
- relative viability (Crenolanib + Dasatinib; first compound 0.1 µM): 0.498
- relative viability (Crenolanib + Dasatinib; first compound 0.3162 µM): 0.615
- relative viability (Crenolanib + Dasatinib; first compound 1 µM): 0.514
- relative viability (Tivantinib + Pictilisib; first compound 0.01 µM): 0.393
- relative viability (Tivantinib + Pictilisib; first compound 0.03162 µM): 0.377
- relative viability (Tivantinib + Pictilisib; first compound 0.1 µM): 0.377
- relative viability (Tivantinib + Pictilisib; first compound 0.3162 µM): 0.265

Cell Line: NCI-H596
- relative viability (Tivantinib + Trametinib; first compound 0.01 µM): 0.897
- relative viability (Tivantinib + Trametinib; first compound 0.03162 µM): 0.839
- relative viability (Tivantinib + Trametinib; first compound 0.1 µM): 0.774
- relative viability (Tivantinib + Trametinib; first compound 0.3162 µM): 0.678
- relative viability (Tivantinib + Foretinib; first compound 0.01 µM): 0.855
- relative viability (Tivantinib + Foretinib; first compound 0.03162 µM): 0.835
- relative viability (Tivantinib + Foretinib; first compound 0.1 µM): 1.1
- relative viability (Tivantinib + Foretinib; first compound 0.3162 µM): 0.895
- relative viability (Crenolanib + Dasatinib; first compound 0.01 µM): 0.716
- relative viability (Crenolanib + Dasatinib; first compound 0.03162 µM): 0.655
- relative viability (Crenolanib + Dasatinib; first compound 0.1 µM): 0.627
- relative viability (Crenolanib + Dasatinib; first compound 0.3162 µM): 0.675
- relative viability (Crenolanib + Dasatinib; first compound 1 µM): 0.538
- relative viability (Tivantinib + Pictilisib; first compound 0.01 µM): 0.427
- relative viability (Tivantinib + Pictilisib; first compound 0.03162 µM): 0.39
- relative viability (Tivantinib + Pictilisib; first compound 0.1 µM): 0.379
- relative viability (Tivantinib + Pictilisib; first compound 0.3162 µM): 0.334

Cell Line: NCI-H2085
- relative viability (Tivantinib + Trametinib; first compound 0.01 µM): 0.62
- relative viability (Tivantinib + Trametinib; first compound 0.03162 µM): 0.484
- relative viability (Tivantinib + Trametinib; first compound 0.1 µM): 0.544
- relative viability (Tivantinib + Trametinib; first compound 0.3162 µM): 0.516
- relative viability (Tivantinib + Foretinib; first compound 0.01 µM): 0.921
- relative viability (Tivantinib + Foretinib; first compound 0.03162 µM): 1.13
- relative viability (Tivantinib + Foretinib; first compound 0.1 µM): 0.916
- relative viability (Tivantinib + Foretinib; first compound 0.3162 µM): 0.666
- relative viability (Crenolanib + Dasatinib; first compound 0.01 µM): 0.27
- relative viability (Crenolanib + Dasatinib; first compound 0.03162 µM): 0.26
- relative viability (Crenolanib + Dasatinib; first compound 0.1 µM): 0.263
- relative viability (Crenolanib + Dasatinib; first compound 0.3162 µM): 0.216
- relative viability (Crenolanib + Dasatinib; first compound 1 µM): 0.315
- relative viability (Tivantinib + Pictilisib; first compound 0.01 µM): 0.477
- relative viability (Tivantinib + Pictilisib; first compound 0.03162 µM): 0.471
- relative viability (Tivantinib + Pictilisib; first compound 0.1 µM): 0.392
- relative viability (Tivantinib + Pictilisib; first compound 0.3162 µM): 0.515

Cell Line: NCI-H2023
- relative viability (Tivantinib + Trametinib; first compound 0.01 µM): 0.593
- relative viability (Tivantinib + Trametinib; first compound 0.03162 µM): 0.551
- relative viability (Tivantinib + Trametinib; first compound 0.1 µM): 0.433
- relative viability (Tivantinib + Trametinib; first compound 0.3162 µM): 0.414
- relative viability (Tivantinib + Foretinib; first compound 0.01 µM): 0.787
- relative viability (Tivantinib + Foretinib; first compound 0.03162 µM): 0.841
- relative viability (Tivantinib + Foretinib; first compound 0.1 µM): 0.816
- relative viability (Tivantinib + Foretinib; first compound 0.3162 µM): 0.516
- relative viability (Crenolanib + Dasatinib; first compound 0.01 µM): 0.656
- relative viability (Crenolanib + Dasatinib; first compound 0.03162 µM): 0.603
- relative viability (Crenolanib + Dasatinib; first compound 0.1 µM): 0.669
- relative viability (Crenolanib + Dasatinib; first compound 0.3162 µM): 0.743
- relative viability (Crenolanib + Dasatinib; first compound 1 µM): 0.567
- relative viability (Tivantinib + Pictilisib; first compound 0.01 µM): 0.246
- relative viability (Tivantinib + Pictilisib; first compound 0.03162 µM): 0.225
- relative viability (Tivantinib + Pictilisib; first compound 0.1 µM): 0.218
- relative viability (Tivantinib + Pictilisib; first compound 0.3162 µM): 0.202
